From patent US20170367956A1, “Oral Care Composition” (Colgate-Palmolive Company, priority 2014, published 2017) come the findings set out here.

Structures are written as SMILES.

One assay relates to Human keratinocytes. Nature of the assay: Migration of human keratinocytes after scratch (gap closure). The class given is cell-based. The conditions noted are these: for % Gap Closure: 100 ppm taurine in DMEM. The protocol:
Human keratinocytes are cultured in DMEM medium supplemented with 10% FBS and 1% of antibiotic at 37° C. under a 5% CO2 atmosphere in petri dishes. Once the cells are 80-90% confluent, a scratch is made horizontally and a scratch is made vertically across the layer of cells. 1 ml of a test solution is added to the culture, and the cells are further incubated and monitored by photomicroscopy to evaluate the closure of the gap created by the scratches. The test solutions compared are 100 ppm Taurine in DMEM medium and untreated DMEM medium. The results are shown in Table 4 below, expressed as the average width of the gap as a percentage of the initial width of the gap (at 0 hours).

A further assay has as its system HSP-27. Nature of the assay: Intracellular HSP27 expression in scratched keratinocytes (ELISA). Type of assay: cell-based, human. As to conditions: for HSP-27, intracellular: 50 ppm taurine. The protocol:
Human keratinocytes are cultured in DMEM medium supplemented with 10% FBS and 1% of antibiotic at 37° C. under a 5% CO2 atmosphere in petri dishes. Once the cells are 80-90% confluent, a scratch is made horizontally and a scratch is made vertically across the layer of cells. […] […] The cell suspension is then homogenized with metal beads for 5 minutes and then analyzed for HSP27 using ELISA. In both untreated and arginine treated cells, scratching induces a strong increase in intracellular HSP-27 expression at one hour which declines at 4 hours. […] Without being bound by theory, Applicants believe that it is this initial burst of HSP-27 expression at the time of physical injury that contributes to improved wound healing.
A general note: An ELISA detects its analyte on a solid surface through an enzyme-linked reagent.

Another assay deals with HSP 27. Nature of the assay: HSP 27 assay in scratched (damaged) human gingival tissue, supernatant level. Type of assay: cell-based. As to conditions: for Concentration of HSP 27: scratched gingival tissue. The protocol: A scratching protocol was used to damage and stress human gingival tissue (MatTek Corporation). Taurine, at two doses, (50 ppm and 200 ppm), was applied to the culture medium containing the tissue. The treated tissue was incubated at 37° C. to promote tissue healing. Cell supernatant was collected at various time points and the level of HSP 27 was measured.

For `NCCS(=O)(=O)O` [Taurine, 2-aminoethanesulfonic acid], in the assay on Human keratinocytes (100 ppm taurine), the “Speed of gap closure compared to the DMEM control (in words)” value was “significantly faster”. Besides, the “% Gap Closure” value in the assay on Human keratinocytes (24 hr after scratch) amounted to 23%; in the assay on Human keratinocytes (48 hr after scratch) it was 71%; in the assay with Human keratinocytes (144 hr after scratch), 100%. Besides, the figures for the “HSP-27, intracellular” value with HSP-27 (time 0 hr) and in the assay with HSP-27 (time 1 hr) were 23.59 ng/mL and 69.65 ng/mL, respectively. Moreover, in the assay on HSP 27 (50 ppm versus 200 ppm), the “Difference in HSP 27 production between the two concentrations of taurine (in words)” value was “no significant difference”. The “Effect on production of HSP 27 versus untreated, scratched tissue (in words)” value in the assay with HSP 27 (both doses tested (50 ppm and 200 ppm), 1 hour and 4 hours) is listed as “significantly accelerated the production of HSP 27”. In addition, the “Concentration of HSP 27” value came out at 10.05 ng/mL in the assay on HSP 27 (taurine 50 ppm, incubation time 0 hr); 180.33 ng/mL in the assay on HSP 27 (taurine 50 ppm, incubation time 1 hr); 269.64 ng/mL in the assay with HSP 27 (taurine 50 ppm, incubation time 4 hr); 6.19 ng/mL in the assay with HSP 27 (taurine 200 ppm, incubation time 0 hr); 196.95 ng/mL in the assay on HSP 27 (taurine 200 ppm, incubation time 1 hr); 275.17 ng/mL in the assay on HSP 27 (taurine 200 ppm, incubation time 4 hr).
Consider `N=C(N)NCCC[C@H](N)C(=O)O` [arginine], for which, in the assay on HSP-27, the “Intracellular HSP-27 expression versus untreated cells (in words)” value was “significantly higher expression of HSP-27”.
